Test [1] has as its target Angiopoietin-1 receptor (Homo sapiens, UniProt Q02763). Kind of test: Residual activity of TIE2 at 1 uM by microplate scintillation counting.
The target in test [2] is T1, TGF-beta receptor type-1 (Homo sapiens) (UniProt P36897).
T1 sequence (whole entry): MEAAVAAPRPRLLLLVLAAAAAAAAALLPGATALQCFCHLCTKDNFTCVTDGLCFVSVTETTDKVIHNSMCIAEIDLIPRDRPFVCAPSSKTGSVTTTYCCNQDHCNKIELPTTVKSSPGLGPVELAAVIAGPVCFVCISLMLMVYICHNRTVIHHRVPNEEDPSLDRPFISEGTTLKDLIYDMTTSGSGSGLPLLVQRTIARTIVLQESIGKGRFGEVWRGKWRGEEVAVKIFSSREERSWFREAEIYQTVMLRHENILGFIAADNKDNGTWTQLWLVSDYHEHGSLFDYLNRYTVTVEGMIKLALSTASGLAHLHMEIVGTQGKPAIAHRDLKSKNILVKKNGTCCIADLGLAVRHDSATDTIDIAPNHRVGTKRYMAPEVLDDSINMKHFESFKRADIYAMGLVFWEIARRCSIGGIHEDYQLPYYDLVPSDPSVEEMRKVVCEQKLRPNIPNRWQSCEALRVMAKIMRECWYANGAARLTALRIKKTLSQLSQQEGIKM
Kind of test: Residual activity of TGFB-R1 at 0.1 uM by microplate scintillation counting.

The target of test [3] is T2, Ephrin type-B receptor 2 (Homo sapiens) (UniProt P29323).
T2 sequence (whole entry): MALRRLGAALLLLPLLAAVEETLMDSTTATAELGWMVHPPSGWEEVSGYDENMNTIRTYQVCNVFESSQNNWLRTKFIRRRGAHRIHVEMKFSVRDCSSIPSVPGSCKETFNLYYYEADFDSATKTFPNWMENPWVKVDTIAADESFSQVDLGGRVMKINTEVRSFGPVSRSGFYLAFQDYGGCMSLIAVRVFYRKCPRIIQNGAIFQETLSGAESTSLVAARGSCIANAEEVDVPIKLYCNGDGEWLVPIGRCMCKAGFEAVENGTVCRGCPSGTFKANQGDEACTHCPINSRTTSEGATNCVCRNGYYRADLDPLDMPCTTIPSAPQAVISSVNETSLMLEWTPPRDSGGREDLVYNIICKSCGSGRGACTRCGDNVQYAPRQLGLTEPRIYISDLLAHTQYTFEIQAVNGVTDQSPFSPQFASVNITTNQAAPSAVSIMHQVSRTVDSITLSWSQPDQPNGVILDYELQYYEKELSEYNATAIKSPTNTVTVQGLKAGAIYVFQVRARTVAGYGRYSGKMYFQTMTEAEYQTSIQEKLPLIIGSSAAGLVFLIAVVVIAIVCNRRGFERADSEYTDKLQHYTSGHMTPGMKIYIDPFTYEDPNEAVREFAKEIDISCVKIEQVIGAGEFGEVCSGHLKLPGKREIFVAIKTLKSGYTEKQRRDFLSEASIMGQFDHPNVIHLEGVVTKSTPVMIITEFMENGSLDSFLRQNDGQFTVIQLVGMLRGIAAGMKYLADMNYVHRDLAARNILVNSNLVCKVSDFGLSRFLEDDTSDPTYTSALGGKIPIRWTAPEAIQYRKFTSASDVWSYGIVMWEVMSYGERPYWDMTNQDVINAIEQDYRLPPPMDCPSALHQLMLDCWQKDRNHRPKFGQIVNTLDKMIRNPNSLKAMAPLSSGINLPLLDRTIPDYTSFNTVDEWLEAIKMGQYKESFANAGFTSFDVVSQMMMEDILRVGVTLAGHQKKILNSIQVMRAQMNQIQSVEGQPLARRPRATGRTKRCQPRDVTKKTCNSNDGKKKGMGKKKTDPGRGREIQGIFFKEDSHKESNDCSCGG
Kind of test: Residual activity of EPHB2 at 1 uM by microplate scintillation counting.

Test [4] addresses Dual specificity tyrosine-phosphorylation-regulated kinase 1B (Homo sapiens) (UniProt Q9Y463). Kind of test: Residual activity of DYRK1B at 0.1 uM by microplate scintillation counting.
In test [5] the target is RAC-beta serine/threonine-protein kinase (Homo sapiens) (UniProt P31751). The test is described as follows: Residual activity of AKT2 at 0.1 uM by microplate scintillation counting.
RAC-beta serine/threonine-protein kinase (Homo sapiens), sequence (P31751 whole entry): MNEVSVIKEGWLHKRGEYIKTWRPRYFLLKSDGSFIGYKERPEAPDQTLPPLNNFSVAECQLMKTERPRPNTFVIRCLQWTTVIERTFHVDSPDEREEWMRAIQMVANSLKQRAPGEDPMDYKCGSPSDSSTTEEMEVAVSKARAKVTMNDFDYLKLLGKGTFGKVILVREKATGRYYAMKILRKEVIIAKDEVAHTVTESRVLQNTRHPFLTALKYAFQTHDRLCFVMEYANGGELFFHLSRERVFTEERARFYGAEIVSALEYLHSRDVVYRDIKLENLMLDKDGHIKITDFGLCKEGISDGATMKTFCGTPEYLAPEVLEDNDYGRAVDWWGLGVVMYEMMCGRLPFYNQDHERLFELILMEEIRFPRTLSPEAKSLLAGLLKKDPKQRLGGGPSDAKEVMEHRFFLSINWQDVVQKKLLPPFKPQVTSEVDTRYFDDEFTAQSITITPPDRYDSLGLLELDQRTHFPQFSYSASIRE
The target of test [6] is CDK9/cyclin T1 (Homo sapiens) (UniProt O60563+P50750). The test is described as follows: Residual activity of CDK9/Cyclin T at 10 uM by microplate scintillation counting. Format: protein-complex assay.
Test [7] has as its target Fibroblast growth factor receptor 4 (Homo sapiens) (UniProt P22455). The test is described as follows: Residual activity of FGFR4 at 10 uM by microplate scintillation counting.
Test [8] deals with T3, Lymphokine-activated killer T-cell-originated protein kinase (Homo sapiens) (UniProt Q96KB5).
T3 sequence (whole entry): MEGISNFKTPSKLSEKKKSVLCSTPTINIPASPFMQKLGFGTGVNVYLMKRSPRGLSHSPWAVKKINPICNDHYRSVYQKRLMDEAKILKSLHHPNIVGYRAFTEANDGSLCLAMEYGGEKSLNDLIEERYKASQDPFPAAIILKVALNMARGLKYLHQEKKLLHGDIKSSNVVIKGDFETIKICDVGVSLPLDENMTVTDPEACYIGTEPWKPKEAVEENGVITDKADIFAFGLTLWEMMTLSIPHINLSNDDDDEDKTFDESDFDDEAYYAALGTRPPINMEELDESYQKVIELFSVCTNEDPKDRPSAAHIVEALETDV
Kind of test: Residual activity of PBK at 0.1 uM by microplate scintillation counting.

In test [9] the target is Protein kinase C gamma type (Homo sapiens) (UniProt P05129). Kind of test: Residual activity of PKCgamma at 10 uM by microplate scintillation counting.
Test [10] addresses T4, Mitogen-activated protein kinase 12 (Homo sapiens) (UniProt P53778).
T4 sequence (whole entry): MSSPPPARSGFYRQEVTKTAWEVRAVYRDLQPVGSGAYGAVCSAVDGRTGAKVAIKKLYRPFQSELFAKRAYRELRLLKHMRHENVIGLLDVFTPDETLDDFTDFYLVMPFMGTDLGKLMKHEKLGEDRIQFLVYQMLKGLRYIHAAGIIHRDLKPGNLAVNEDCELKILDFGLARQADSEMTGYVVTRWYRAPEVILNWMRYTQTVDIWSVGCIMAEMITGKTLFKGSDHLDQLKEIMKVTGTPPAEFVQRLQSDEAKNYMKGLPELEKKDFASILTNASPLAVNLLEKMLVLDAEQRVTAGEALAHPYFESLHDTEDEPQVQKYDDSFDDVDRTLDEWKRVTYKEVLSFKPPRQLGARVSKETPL
Kind of test: Residual activity of p38-gamma at 0.1 uM by microplate scintillation counting.

Dual specificity tyrosine-phosphorylation-regulated kinase 1B (Homo sapiens), sequence (Q9Y463 whole entry, looked up): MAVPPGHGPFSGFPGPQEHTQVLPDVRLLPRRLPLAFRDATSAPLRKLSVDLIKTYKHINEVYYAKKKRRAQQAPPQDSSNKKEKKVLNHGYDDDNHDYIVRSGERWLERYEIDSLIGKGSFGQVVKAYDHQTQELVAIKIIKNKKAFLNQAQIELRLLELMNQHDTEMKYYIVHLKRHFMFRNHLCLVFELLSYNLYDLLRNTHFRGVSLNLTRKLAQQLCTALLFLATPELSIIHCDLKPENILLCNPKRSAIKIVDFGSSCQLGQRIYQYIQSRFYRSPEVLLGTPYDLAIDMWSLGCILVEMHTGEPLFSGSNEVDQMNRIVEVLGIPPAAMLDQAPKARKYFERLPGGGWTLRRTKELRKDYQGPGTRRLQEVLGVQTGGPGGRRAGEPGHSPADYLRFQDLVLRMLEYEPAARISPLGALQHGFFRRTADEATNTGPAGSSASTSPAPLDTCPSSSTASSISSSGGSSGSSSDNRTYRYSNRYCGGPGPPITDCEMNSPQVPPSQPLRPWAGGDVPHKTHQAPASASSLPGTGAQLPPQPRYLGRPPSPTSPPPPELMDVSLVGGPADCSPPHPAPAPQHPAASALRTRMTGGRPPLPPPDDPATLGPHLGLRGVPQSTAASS
Fibroblast growth factor receptor 4 (Homo sapiens), sequence (P22455 22-802 limits assumed): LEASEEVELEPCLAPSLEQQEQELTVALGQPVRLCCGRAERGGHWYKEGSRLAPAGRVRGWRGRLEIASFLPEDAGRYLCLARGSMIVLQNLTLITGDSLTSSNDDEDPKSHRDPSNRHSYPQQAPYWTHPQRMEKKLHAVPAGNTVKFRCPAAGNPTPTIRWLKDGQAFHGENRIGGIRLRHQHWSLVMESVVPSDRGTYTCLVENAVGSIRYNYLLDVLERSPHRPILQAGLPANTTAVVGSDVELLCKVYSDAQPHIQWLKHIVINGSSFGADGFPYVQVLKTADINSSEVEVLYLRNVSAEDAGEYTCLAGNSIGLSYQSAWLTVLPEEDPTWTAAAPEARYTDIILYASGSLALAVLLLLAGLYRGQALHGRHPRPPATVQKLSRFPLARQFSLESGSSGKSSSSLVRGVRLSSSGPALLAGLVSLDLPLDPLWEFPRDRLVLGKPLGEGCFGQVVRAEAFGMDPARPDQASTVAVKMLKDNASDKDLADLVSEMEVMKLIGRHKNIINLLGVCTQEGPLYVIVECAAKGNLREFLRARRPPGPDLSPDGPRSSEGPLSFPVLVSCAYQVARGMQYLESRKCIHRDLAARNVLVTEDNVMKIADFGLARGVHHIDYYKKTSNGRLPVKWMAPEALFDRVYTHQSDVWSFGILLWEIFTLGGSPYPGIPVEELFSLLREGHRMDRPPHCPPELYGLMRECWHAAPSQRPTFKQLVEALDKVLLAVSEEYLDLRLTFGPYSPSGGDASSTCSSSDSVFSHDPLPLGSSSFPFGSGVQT
Angiopoietin-1 receptor, sequence (Q02763 whole entry): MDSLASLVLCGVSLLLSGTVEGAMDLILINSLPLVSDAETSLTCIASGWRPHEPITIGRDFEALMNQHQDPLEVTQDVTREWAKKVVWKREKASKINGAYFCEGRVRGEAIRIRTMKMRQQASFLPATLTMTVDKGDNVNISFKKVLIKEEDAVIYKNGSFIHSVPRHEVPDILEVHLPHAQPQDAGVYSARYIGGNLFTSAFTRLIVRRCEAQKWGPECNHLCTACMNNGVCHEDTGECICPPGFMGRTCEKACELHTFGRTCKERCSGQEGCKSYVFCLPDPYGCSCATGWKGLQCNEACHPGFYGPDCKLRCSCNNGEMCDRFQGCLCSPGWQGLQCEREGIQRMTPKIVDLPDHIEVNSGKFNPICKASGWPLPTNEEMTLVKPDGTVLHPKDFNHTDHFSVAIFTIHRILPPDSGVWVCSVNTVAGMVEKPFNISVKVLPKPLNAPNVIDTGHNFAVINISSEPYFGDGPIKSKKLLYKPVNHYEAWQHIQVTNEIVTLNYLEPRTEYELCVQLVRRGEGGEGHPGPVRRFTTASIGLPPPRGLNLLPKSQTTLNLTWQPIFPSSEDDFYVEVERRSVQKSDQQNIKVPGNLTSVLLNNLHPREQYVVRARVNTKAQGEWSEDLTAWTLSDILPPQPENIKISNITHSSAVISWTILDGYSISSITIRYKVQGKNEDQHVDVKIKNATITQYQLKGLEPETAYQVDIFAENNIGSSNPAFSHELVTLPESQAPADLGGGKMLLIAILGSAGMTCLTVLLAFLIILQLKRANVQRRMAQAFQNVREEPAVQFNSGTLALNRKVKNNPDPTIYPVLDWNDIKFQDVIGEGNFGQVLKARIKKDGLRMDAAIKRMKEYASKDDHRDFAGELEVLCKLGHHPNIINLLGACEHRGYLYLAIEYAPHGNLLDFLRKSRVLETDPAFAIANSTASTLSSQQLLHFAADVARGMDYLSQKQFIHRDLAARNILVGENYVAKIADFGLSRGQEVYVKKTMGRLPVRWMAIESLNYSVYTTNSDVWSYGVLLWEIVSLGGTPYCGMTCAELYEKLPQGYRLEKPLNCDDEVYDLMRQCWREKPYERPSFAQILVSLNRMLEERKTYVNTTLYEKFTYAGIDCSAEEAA

For `COc1cc2c(Oc3ccc(-c4nc5ccccc5s4)cc3)ncnc2cc1OCCCN1CCCC1`, the residual activity stood at 23% in test [1]; 90% in test [2]; 98% in test [3]; 98% in [4]; 102% in test [5]; 107% in test [6]. Also, the residual activity is 205% in [7], 110% in test [8], 33% in [9] and 86% in [10].
With `COc1cc2c(Oc3ccc(-c4nc5ccccc5s4)cc3F)ncnc2cc1OCCCN1CCN(C)CC1`, the residual activity amounted to 16% in test [1]; 96% in test [2]; 72% in test [3]; 89% in test [4]; 108% in [5]; 107% in [6]. Besides, the residual activity in [7] was found to be 118%; in test [8], 91%; in test [9] it was 58%; in test [10], 86%.
As to `COc1cc2c(Oc3ccc(-c4nc5ccccc5s4)cc3)ncnc2cc1OCCCN1CCN(C)CC1`, the residual activity in [1] turned out to be 22%; in test [2] it was 102%; in test [3], 86%; in test [4], 104%; in [5], 97%; in test [6], 109%. The residual activity is 287% in test [7], 96% in test [8], 80% in test [9] and 93% in test [10].

The values are drawn from ChEMBL document CHEMBL1152560, “Substituted 2-arylbenzothiazoles as kinase inhibitors: hit-to-lead optimization” (Bioorg Med Chem, 2009).
